The assay concerns E. coli. The assay is described as follows: pin array antibiotic susceptibility assay (zones of inhibition) on LB agar plates. The conditions noted are these: 7×7 pin array. The class given is cell-based. Here is the method: 1. Cell Introduction: E. coli resuspension were plated onto LB agar plates and incubated at 37° C. until the cells reach desired condition.
2. Pin array preparation: Two 7×7 pin arrays were loaded with ampicillin from 0.2 μg to 4 μg according to the configurations shown in FIGS. 5B and 6B, respectively.
3. Treatment: After the cells reach the desired condition, the pin arrays loaded with ampicillin according to the configurations shown in FIGS. 5B and 6B were coupled to LB agar plates with E. coli culture. The LB agar plates were incubated at 37° C.
2. Pin array preparation: Two 7×7 pin arrays were loaded with ampicillin from 0.4 μg to 4 μg according to the configurations shown in FIGS. 7A and 7B, respectively.
3. Treatment: After the cells reach the desired condition, the pin arrays loaded with ampicillin according to the configurations shown in FIGS. 7A and 7B were coupled to LB agar plates with E. coli culture. The LB agar plates were incubated at 37° C., and stored overnight at 4° C. and in Styrofoam box with ice packs, respectively.
2. Pin array preparation: A 7×7 pin array was loaded with ampicillin from 0.4 μg to 4 μg according to the configurations shown in FIG. 8A.
3. Treatment: After the cells reach the desired condition, the pin array loaded with ampicillin according to the configurations shown in FIG. 8A was coupled to an LB agar plate with E. coli culture. The LB agar plate was incubated at 37° C., and images of the plates were taken at the same day (FIG. 8A), and after 5 weeks at 4° C. (FIG. 8B).

Consider one compound from patent US20240254536A1, “[…] ARRAY AND USES THEREOF” (DrugArray, Inc., priority 2021, published 2024).

Consider `CC1(C)S[C@@H]2[C@H](NC(=O)[C@H](N)c3ccccc3)C(=O)N2[C@H]1C(=O)O` [ampicillin], for which the zones of inhibition entry is, setting by setting: (ampicillin 0.2 μg to 4 μg, configuration of FIG. 5B, 37° C. (FIG. 5A)) “well-defined, and a dose-dependent manner of the sizes of the zones”; (ampicillin 0.2 μg to 4 μg, configuration of FIG. 6B, 37° C. (FIG. 6A)) “well-defined, dose-dependent zones of inhibition”; (ampicillin 0.4 μg to 4 μg, after 5 weeks of storage at 4° C. (FIG. 8B)) “smaller zones of inhibition”; (ampicillin 0.4 μg to 4 μg, image taken the same day (FIG. 8A)) “Well-defined, dose-dependent zones of inhibition”; (ampicillin 0.4 μg to 4 μg, stored overnight at 4° C. (FIG. 7A)) “Well-defined, dose-dependent zones of inhibition”; (ampicillin 0.4 μg to 4 μg, stored overnight in Styrofoam box with ice packs (FIG. 7B)) “Well-defined, dose-dependent zones of inhibition”.
